Earlier results on 1 substance are cited in patent US20250368755A1, “PEPTIDE THAT SP[…] TO PPC REGION OF SARS-COV-2 SPIKE PROTEIN AND COMPOSITION FOR […]-COV-2 INFECTION USING THE SAME” (priority 2024, published 2025).

The data set addresses S1/S2 region. The settings on record: known value; read-out: binding affinity of furin for the cleavage of S1/S2 region; cited from earlier work.

With furin, the Kd was 16 nM.
